In publication PMC6337391 (Molecules, 2019):

Key:
[1] = ABTS•+ decolorization assay
How it was run: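 Compounds (10 mM DMSO stocks, diluted) added to ABTS•+ radical generated by potassium persulfate oxidation of ABTS. Decolorization followed as absorbance at room temperature, with Trolox as standard.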

[2] = Inhibition of linoleic acid lipid peroxidation (AAPH)
How it was run: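 Sodium linoleate oxidation was initiated by AAPH in 0.05 M phosphate buffer, pH 7.4, at 37 °C, with test compound present and DMSO as blank. Conjugated diene hydroperoxide formation was followed as the absorbance increase at 234 nm.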

[3] = Lipophilicity as RM values by RP-TLC; type: physicochemical; set-up: key: RM = log[(1/Rf) − 1]; conditions: methanol/water 70/30, SD < 10%
How it was run: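 Reversed-phase TLC on silica gel plates impregnated with 5% (v/v) liquid paraffin, methanol/water 70/30 (v/v) mobile phase, saturated tanks at 24 °C, UV detection. RM = log[(1/Rf) − 1] from five Rf measurements.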

[4] = system: L929 mouse fibroblasts cells; assay: Cytotoxicity, propidium iodide fluorescence method; type: cell-based; conditions: 24-h incubation
How it was run: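 L929 cells in EMEM with 10% horse serum were allowed to attach for 24 h, then exposed to 1, 10, 20, 50 and 100 μM compound for 24 h at 37 °C. Cells were detached, stained with propidium iodide, and cell death was measured by flow cytometry.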

SMILES	ABTS•+ Inhb. % @ 100 μM [1]	AAPH% @ 100 μM (anti-lipid peroxidation) [2]	RM [3]	1 μM Average (% pi) ± σ [4]	10 μM Average (% pi) ± σ [4]	20 μM Average (% pi) ± σ [4]	50 μM Average (% pi) ± σ [4]	100 μM Average (% pi) ± σ [4]
O=C(/C=C/c1cccc2ccccc12)c1ccccc1O [b4, (E)-1-(2-hydroxyphenyl)-3-(naphthalen-1-yl) prop-2-en-1-one]	No	82%	−0.03	–	–	–	–	–
CC(=O)c1ccc(OCCCCCCCOc2ccc(C(C)=O)cc2)cc1 [dvi, 1,1′-((heptane-1,7-diylbis(oxy))bis-(4,1-phenylene)) diethanone]	No	12%	0.32	0.37 ± 0.52%	1.92 ± 1.02%	1.79 ± 1.53%	2.55 ± 0.5%	2.55 ± 0.5%
O=C(/C=C/C=C/c1ccc([N+](=O)[O-])cc1)c1ccc(OCCCOc2ccc(C(=O)/C=C/C=C/c3ccc([N+](=O)[O-])cc3)cc2)cc1 [c11, (2E,2′E,4E,4′E)-1,1′-((propane-1,3-diylbis(oxy))bis(4,1-phenylene))bis(5-(4-nitrophenyl)penta-2,4-dien-1-one)]	No	68%	−0.88	6.4 ± 0.4%	19.07 ± 7.23%	34.63 ± 0.31%	64.53 ± 3.07%	64.53 ± 3.07%
CC(=O)c1ccc(OCCOc2ccc(C(C)=O)cc2)cc1 [di, 1,1′-((ethane-1,2-diylbis(oxy))bis(4,1-phenylene))diethanone]	No	22%	0.67	4.94 ± 1.02%	9.05 ± 0.58%	16.78 ± 5.61%	33.22 ± 9.65%	33.22 ± 9.65%
